Results published in the NIST ThermoML archive (doi:10.1021/je900903w).

Assay: mn = molality of the nth substance listed, in mol/kg
Conditions: 101 kPa, Liquid; for molar conductivity: Alternating current cell with electrodes

O=CO [formic acid] + O
Conditions | mass density, 298.15 K [kg/m3] | molar conductivity, 278.15 K [S·m2/mol] | molar conductivity, 283.15 K [S·m2/mol] | molar conductivity, 288.15 K [S·m2/mol] | molar conductivity, 293.15 K [S·m2/mol] | molar conductivity, 298.15 K [S·m2/mol] | molar conductivity, 303.15 K [S·m2/mol] | molar conductivity, 308.15 K [S·m2/mol] | molar conductivity, 313.15 K [S·m2/mol]
m1 = 0.0002709 | – | 0.0149 | 0.0165 | 0.018 | 0.01947 | 0.02084 | 0.02214 | 0.0233 | 0.0242
m1 = 0.0005657 | – | 0.0113 | 0.0125 | 0.0138 | 0.0149 | 0.0161 | 0.0171 | 0.018 | 0.0189
m1 = 0.0008298 | – | 0.00971 | 0.0108 | 0.0119 | 0.0129 | 0.0139 | 0.0149 | 0.0157 | 0.0164
m1 = 0.001094 | – | 0.00867 | 0.00965 | 0.0106 | 0.0115 | 0.0124 | 0.0133 | 0.0141 | 0.0147
m1 = 0.001442 | – | 0.00773 | 0.00862 | 0.00948 | 0.0103 | 0.0111 | 0.0119 | 0.0126 | 0.0132
m1 = 0.001825 | – | 0.0069 | 0.00768 | 0.00845 | 0.0092 | 0.00991 | 0.0106 | 0.0112 | 0.0117
m1 = 0.002222 | – | 0.00636 | 0.00709 | 0.00781 | 0.0085 | 0.00917 | 0.00981 | 0.0104 | 0.0109
m1 = 0.002648 | – | 0.00593 | 0.00661 | 0.00727 | 0.0079 | 0.00851 | 0.00907 | 0.00959 | 0.0101
m1 = 0.003208 | – | 0.00548 | 0.00611 | 0.00673 | 0.00733 | 0.00791 | 0.00845 | 0.00894 | 0.00939
m1 = 0.003957 | – | 0.00505 | 0.00563 | 0.0062 | 0.00675 | 0.00729 | 0.00779 | 0.00824 | 0.00866
m1 = 0.004898 | 997.113 | 0.00463 | 0.00517 | 0.0057 | 0.00621 | 0.0067 | 0.00717 | 0.0076 | 0.00799
m1 = 0.1291 | 998.53 | – | – | – | – | – | – | – | –

O=C[O-].[K+] [potassium formate] + O
Conditions | mass density, 298.15 K [kg/m3] | molar conductivity, 278.15 K [S·m2/mol] | molar conductivity, 283.15 K [S·m2/mol] | molar conductivity, 288.15 K [S·m2/mol] | molar conductivity, 293.15 K [S·m2/mol] | molar conductivity, 298.15 K [S·m2/mol] | molar conductivity, 303.15 K [S·m2/mol] | molar conductivity, 308.15 K [S·m2/mol] | molar conductivity, 313.15 K [S·m2/mol]
m1 = 0.0003498 | – | 0.007906 | 0.009019 | 0.01018 | 0.01138 | 0.0126 | 0.01387 | 0.01516 | 0.01649
m1 = 0.0006599 | – | 0.007826 | 0.008931 | 0.01008 | 0.01128 | 0.01251 | 0.01377 | 0.01502 | 0.01632
m1 = 0.001026 | – | 0.007789 | 0.008888 | 0.01003 | 0.01121 | 0.01245 | 0.01371 | 0.015 | 0.01628
m1 = 0.001412 | – | 0.007752 | 0.008844 | 0.009984 | 0.01117 | 0.01239 | 0.01365 | 0.01494 | 0.01622
m1 = 0.001766 | – | 0.007701 | 0.008787 | 0.009919 | 0.0111 | 0.01231 | 0.01356 | 0.01485 | 0.01614
m1 = 0.002217 | – | 0.007674 | 0.008755 | 0.009886 | 0.01106 | 0.01226 | 0.01351 | 0.0148 | 0.01608
m1 = 0.002823 | – | 0.007653 | 0.008729 | 0.009852 | 0.01102 | 0.01223 | 0.01348 | 0.01476 | 0.01606
m1 = 0.003432 | – | 0.007632 | 0.008706 | 0.009826 | 0.01099 | 0.0122 | 0.01344 | 0.01472 | 0.01601
m1 = 0.00406 | – | 0.007611 | 0.008682 | 0.0098 | 0.01097 | 0.01217 | 0.01341 | 0.01468 | 0.01596
m1 = 0.004815 | – | 0.007596 | 0.008665 | 0.00978 | 0.01094 | 0.01214 | 0.01338 | 0.01465 | 0.01593
m1 = 0.005831 | 997.346 | 0.007573 | 0.008637 | 0.009748 | 0.01091 | 0.0121 | 0.01333 | 0.0146 | 0.01587
m1 = 0.1219 | 1002.91 | – | – | – | – | – | – | – | –

O=C[O-].[Na+] [sodium methanoate] + O
Conditions | mass density, 298.15 K [kg/m3] | molar conductivity, 278.15 K [S·m2/mol] | molar conductivity, 283.15 K [S·m2/mol] | molar conductivity, 288.15 K [S·m2/mol] | molar conductivity, 293.15 K [S·m2/mol] | molar conductivity, 298.15 K [S·m2/mol] | molar conductivity, 303.15 K [S·m2/mol] | molar conductivity, 308.15 K [S·m2/mol] | molar conductivity, 313.15 K [S·m2/mol]
m1 = 0.0002873 | – | 0.00626 | 0.007191 | 0.008167 | 0.009185 | 0.01025 | 0.01134 | 0.01247 | 0.01358
m1 = 0.0003841 | – | 0.006215 | 0.007142 | 0.00813 | 0.009157 | 0.01022 | 0.01133 | 0.01246 | 0.01356
m1 = 0.0005247 | – | 0.006187 | 0.007111 | 0.008093 | 0.009118 | 0.01018 | 0.01128 | 0.01243 | 0.01351
m1 = 0.0005682 | – | 0.006178 | 0.007106 | 0.008083 | 0.009103 | 0.01017 | 0.01126 | 0.01238 | 0.01348
m1 = 0.0006608 | – | 0.006158 | 0.007081 | 0.008058 | 0.009078 | 0.01014 | 0.01124 | 0.01237 | 0.01347
m1 = 0.0008201 | – | 0.006134 | 0.007053 | 0.008027 | 0.009042 | 0.0101 | 0.0112 | 0.01234 | 0.01345
m1 = 0.0008629 | – | 0.006107 | 0.007049 | 0.008019 | 0.009031 | 0.01009 | 0.01118 | 0.01231 | 0.01344
m1 = 0.0009581 | – | 0.006095 | 0.007021 | 0.007988 | 0.009 | 0.01005 | 0.01115 | 0.01228 | 0.01341
m1 = 0.001119 | – | 0.006088 | 0.007002 | 0.007965 | 0.008975 | 0.01002 | 0.01111 | 0.01224 | 0.0134
m1 = 0.001188 | – | 0.006075 | 0.007 | 0.007964 | 0.008973 | 0.01002 | 0.01111 | 0.01224 | 0.01338
m1 = 0.001257 | – | 0.006054 | 0.006986 | 0.007948 | 0.008957 | 0.01001 | 0.0111 | 0.01223 | 0.01337
m1 = 0.001548 | – | 0.006043 | 0.006974 | 0.007934 | 0.008938 | 0.009988 | 0.01107 | 0.01219 | 0.01332
m1 = 0.001921 | – | 0.006045 | 0.006953 | 0.007912 | 0.008914 | 0.009962 | 0.01105 | 0.01216 | 0.01327
m1 = 0.002391 | – | 0.006033 | 0.006939 | 0.007896 | 0.008898 | 0.009943 | 0.01103 | 0.01213 | 0.01325
m1 = 0.003024 | – | 0.006025 | 0.006923 | 0.007876 | 0.008874 | 0.009917 | 0.011 | 0.0121 | 0.0132
m1 = 0.003744 | – | 0.006001 | 0.006901 | 0.007852 | 0.008827 | 0.009883 | 0.01096 | 0.01205 | 0.01315
m1 = 0.004567 | – | 0.00598 | 0.006877 | 0.007823 | 0.008811 | 0.009845 | 0.01092 | 0.01202 | 0.01313
m1 = 0.005591 | 997.307 | 0.005949 | 0.006841 | 0.007783 | 0.008767 | 0.009794 | 0.01086 | 0.01196 | 0.01306
m1 = 0.1222 | 1002.23 | – | – | – | – | – | – | – | –
